Measured values: the CheMixHub viscosity set
± gives the uncertainty stated by the source.

Experiment: xn = mol fraction of the nth substance listed

Cc1ccc(O)cc1 + CCC(=O)O
viscosity [mPa·s], 101 kPa
Conditions	x2 = 0.1344	x2 = 0.2589	x2 = 0.3745	x2 = 0.4823	x2 = 0.5828	x2 = 0.677	x2 = 0.7653	x2 = 0.8482	x2 = 0.9263
298.15 K	10.16 ± 0.76	7.533 ± 0.59	5.663 ± 0.48	4.309 ± 0.38	3.321 ± 0.3	2.59 ± 0.23	2.042 ± 0.19	1.625 ± 0.15	1.297 ± 0.12
308.15 K	6.121 ± 0.5	4.928 ± 0.43	3.983 ± 0.35	3.238 ± 0.29	2.597 ± 0.23	2.136 ± 0.2	1.709 ± 0.16	1.372 ± 0.13	1.112 ± 0.11
318.15 K	4.876 ± 0.42	4.035 ± 0.35	3.365 ± 0.3	2.772 ± 0.25	2.281 ± 0.21	1.853 ± 0.17	1.512 ± 0.14	1.241 ± 0.12	0.9766 ± 0.097

CCCCn1cc[n+](C)c1.F[B-](F)(F)F + CC(C)O
101.33 kPa
Conditions	viscosity [mPa·s]
293.15 K, x1 = 0.8458	68.89 ± 10
293.15 K, x1 = 0.9327	95.48 ± 14
298.15 K, x1 = 0.1585	7.02 ± 1.1
298.15 K, x1 = 0.9327	82.35 ± 12
303.15 K, x1 = 0.2402	9.55 ± 1.4
303.15 K, x1 = 0.9327	70.16 ± 11
308.15 K, x1 = 0.2402	8.45 ± 1.3
313.15 K, x1 = 0.2402	6.79 ± 1
313.15 K, x1 = 0.3505	9.91 ± 1.5
318.15 K, x1 = 0.3505	7.14 ± 1.1
318.15 K, x1 = 0.4422	9.33 ± 1.4
323.15 K, x1 = 0.5619	8.26 ± 1.2

O=S(=O)(Cl)Cl + [Cl-].[Cl-].[Cl-].[Cl-].[Sn+4]
298.15 K, 101 kPa
Conditions	viscosity [mPa·s]
x1 = 0.268	0.7739 ± 0.02
x1 = 0.563	0.7396 ± 0.019
x1 = 0.795	0.7144 ± 0.018

BrC1CCCCC1 + CC(C)CO
viscosity [mPa·s], 101.33 kPa
Conditions	x1 = 0.0998	x1 = 0.2024	x1 = 0.3028	x1 = 0.3991	x1 = 0.4983	x1 = 0.5946	x1 = 0.7011	x1 = 0.8014	x1 = 0.9015
298.15 K	2.871 ± 0.022	2.496 ± 0.02	2.252 ± 0.018	2.095 ± 0.017	1.981 ± 0.017	1.915 ± 0.016	1.878 ± 0.016	1.877 ± 0.016	1.915 ± 0.017
313.15 K	1.846 ± 0.015	1.656 ± 0.013	1.539 ± 0.013	1.47 ± 0.012	1.42 ± 0.012	1.401 ± 0.012	1.399 ± 0.012	1.419 ± 0.013	1.465 ± 0.013

Cc1ccc(O)cc1 + CC(=O)O
viscosity [mPa·s], 101 kPa
Conditions	x2 = 0.1682	x2 = 0.3128	x2 = 0.4383	x2 = 0.5483	x2 = 0.6454	x2 = 0.732	x2 = 0.8094	x2 = 0.8792	x2 = 0.9425
298.15 K	9.47 ± 0.71	6.803 ± 0.55	5.096 ± 0.44	3.918 ± 0.35	3.086 ± 0.28	2.477 ± 0.22	2.038 ± 0.19	1.664 ± 0.16	1.385 ± 0.13
308.15 K	5.756 ± 0.48	4.488 ± 0.39	3.585 ± 0.32	2.902 ± 0.26	2.385 ± 0.22	1.99 ± 0.18	1.674 ± 0.16	1.4 ± 0.13	1.18 ± 0.11
318.15 K	4.584 ± 0.4	3.69 ± 0.33	3.009 ± 0.27	2.473 ± 0.22	2.051 ± 0.19	1.72 ± 0.16	1.447 ± 0.14	1.215 ± 0.12	1.004 ± 0.099

OC1COCOC1 + OCCO
viscosity [mPa·s], 101 kPa
Conditions	x1 = 0.1002	x1 = 0.2002	x1 = 0.3	x1 = 0.4	x1 = 0.5004	x1 = 0.5997	x1 = 0.7	x1 = 0.8001	x1 = 0.8999
298.15 K	16.97 ± 0.36	16.11 ± 0.35	14.94 ± 0.32	13.85 ± 0.3	12.88 ± 0.28	12.74 ± 0.28	12.81 ± 0.28	12.79 ± 0.28	12.89 ± 0.28
308.15 K	11.6 ± 0.25	10.98 ± 0.24	10.23 ± 0.23	9.473 ± 0.21	8.583 ± 0.19	8.457 ± 0.19	8.572 ± 0.19	8.812 ± 0.2	8.878 ± 0.2
318.15 K	8.193 ± 0.18	7.647 ± 0.17	7.214 ± 0.16	6.665 ± 0.15	6.111 ± 0.14	5.995 ± 0.13	5.915 ± 0.13	6.167 ± 0.14	6.474 ± 0.14

Cc1ccc(O)cc1 + CCCCN(CCCC)CCCC
298.16 K, 101 kPa
Conditions	viscosity [mPa·s]
x1 = 0.5103	5.579 ± 0.096
x1 = 0.5404	5.375 ± 0.092
x1 = 0.5979	9.34 ± 0.16
x1 = 0.6392	17.64 ± 0.33
x1 = 0.6996	33.29 ± 0.69
x1 = 0.7333	51.5 ± 1.2
x1 = 0.7543	67.62 ± 1.8
x1 = 0.7729	84.91 ± 2.6
x1 = 0.7927	101.9 ± 3.4
x1 = 0.8108	118 ± 4.3
x1 = 0.8352	127.1 ± 4.8
x1 = 0.8549	122.8 ± 4.5
x1 = 0.8734	104.8 ± 3.5
x1 = 0.893	82.05 ± 2.4
x1 = 0.9161	61.96 ± 1.5
x1 = 0.9375	42.17 ± 0.86
x1 = 0.9497	33.73 ± 0.62
x2 = 0.005161	13.13 ± 0.17

O=S1(=O)CCCC1 + CCC(C)O
viscosity [mPa·s], 101 kPa
Conditions	x1 = 0.0998	x1 = 0.1988	x1 = 0.2898	x1 = 0.3908	x1 = 0.4973	x1 = 0.5943	x1 = 0.7033	x1 = 0.78	x1 = 0.9045
303.15 K	2.151 ± 0.026	–	2.299 ± 0.026	2.55 ± 0.029	2.933 ± 0.034	3.428 ± 0.041	4.266 ± 0.053	5.138 ± 0.066	7.383 ± 0.099
308.15 K	1.858 ± 0.02	1.884 ± 0.021	2.015 ± 0.022	2.246 ± 0.025	2.597 ± 0.03	3.049 ± 0.036	3.799 ± 0.046	4.576 ± 0.056	6.529 ± 0.082
313.15 K	1.615 ± 0.017	1.655 ± 0.018	–	1.993 ± 0.022	2.316 ± 0.026	2.728 ± 0.031	3.407 ± 0.04	4.097 ± 0.049	5.806 ± 0.069

O=S1(=O)CCCC1 + CCCCOC(C)=O
viscosity [mPa·s], 101 kPa
Conditions	x1 = 0.3402	x1 = 0.7887	x2 = 0.0164
303.15 K	–	4.275 ± 0.037	–
308.15 K	1.145 ± 0.011	–	7.925 ± 0.064

O=S1(=O)CCCC1 + Nc1ccccc1
viscosity [mPa·s], 101 kPa
Conditions	x2 = 0.1	x2 = 0.1955	x2 = 0.3007	x2 = 0.3902	x2 = 0.4997	x2 = 0.6003	x2 = 0.7027	x2 = 0.7982	x2 = 0.8995
303.15 K	9.14 ± 0.19	8.22 ± 0.17	7.31 ± 0.15	6.62 ± 0.14	5.86 ± 0.12	5.24 ± 0.11	4.66 ± 0.1	4.17 ± 0.09	3.69 ± 0.08
308.15 K	8.01 ± 0.17	7.2 ± 0.15	6.39 ± 0.14	5.78 ± 0.12	5.1 ± 0.11	4.55 ± 0.1	4.03 ± 0.09	3.59 ± 0.08	3.17 ± 0.07
313.15 K	7.05 ± 0.15	6.33 ± 0.13	5.61 ± 0.12	5.06 ± 0.11	4.46 ± 0.09	3.97 ± 0.08	3.51 ± 0.07	3.12 ± 0.07	2.75 ± 0.06

CCC(C)O (centres undefined) + c1ccccc1
303 K, 101.3 kPa
Conditions	viscosity [mPa·s]
x2 = 0.1032	1.95 ± 0.06
x2 = 0.2077	1.52 ± 0.052
x2 = 0.3084	1.204 ± 0.046
x2 = 0.4086	0.9692 ± 0.042
x2 = 0.511	0.8012 ± 0.04
x2 = 0.5989	0.6995 ± 0.038
x2 = 0.7027	0.6211 ± 0.038
x2 = 0.7981	0.5854 ± 0.037
x2 = 0.8973	0.5709 ± 0.037

Cc1cccc(C)c1 + CCCCCCCCCCO
viscosity [mPa·s], 101 kPa
Conditions	298.15 K	308.15 K
x1 = 0.0627	9.938 ± 0.068	6.871 ± 0.049
x1 = 0.1424	7.856 ± 0.055	5.489 ± 0.04
x1 = 0.2052	6.481 ± 0.046	4.577 ± 0.034
x1 = 0.2618	5.435 ± 0.04	3.88 ± 0.029
x1 = 0.3217	4.497 ± 0.034	3.243 ± 0.024
x1 = 0.3934	3.563 ± 0.027	2.622 ± 0.02
x1 = 0.4989	2.534 ± 0.019	1.912 ± 0.015
x1 = 0.5581	2.095 ± 0.016	1.617 ± 0.013
x1 = 0.6343	1.645 ± 0.014	1.299 ± 0.011
x1 = 0.7131	1.292 ± 0.011	1.045 ± 0.01
x1 = 0.7991	1.001 ± 0.01	0.835 ± 0.009
x1 = 0.8465	0.874 ± 0.009	0.742 ± 0.008
x1 = 0.8964	0.762 ± 0.008	0.662 ± 0.008
x1 = 0.9421	0.674 ± 0.008	0.599 ± 0.008

O=S(=O)(Cl)Cl + Cc1ccccc1
298.15 K, 101 kPa
Conditions	viscosity [mPa·s]
x1 = 0.207	0.5841 ± 0.015
x1 = 0.373	0.6144 ± 0.016
x1 = 0.572	0.6457 ± 0.017
x1 = 0.713	0.6642 ± 0.017
x1 = 0.826	0.6759 ± 0.017
